In PMC13050480, “Preclinical Development of GT-14, a Novel Inhibitor of Gαi2 Protein: Comprehensive Evaluation of Physicochemical, Metabolic Characteristics and Tissue Distribution” (The AAPS journal, 2025):
≈ marks a conversion by molar mass, not a printed value. Entries after “also recorded” stand apart in the source; their conditions may differ. Where two headings read alike, the source gives them in different places.

What was measured:
liver microsomes = assay: Phase II glucuronidation reaction with liver microsomes; format: in vitro ADME; settings: UDPGA, 2 h
Description: The in vitro phase II glucuronidation reaction was carried out using a published protocol that involves the use of uridine diphosphate glucuronic acid (UDPGA) as cofactor, saccharolactone as beta-glucuronidase inhibitor to drive the forward reaction to release the metabolite, potassium phosphate buffer (KPI) to mimic physiological conditions, and alamethicin as a surfactant for the response. The components were pipetted into microcentrifuge tubes in the following order: GT-14 testing solution in KPI (pH 7.4), solution B (25 mM saccharolactone and 5 mM magnesium chloride), solution A (25 mM uridine diphosphate glucuronic acid and potassium chloride), microsome. Samples (100 μL) were taken at 2 h. The reaction was terminated with 50 μL of solution containing 0.6% formic acid in acetonitrile + internal standard (rutin) at each time point and vortexed for 1 min. The samples were then centrifuged at 14,000 rpm for 15 min. The supernatant (100 μL) was then collected and loaded into the UPLC for analysis.

[1] = Stability of GT-14 in rat urine; format: in vitro ADME; settings: for Stability at -20 °C (48 hrs) in rat urine: n=5, in %
Description: Blank rat urine was spiked with GT-14 at conc. of 25, 50, 500 and 1000 ng/mL. The samples were kept at -20°C for 48 hours (n=5, Mean ± SD)

[2] = Solubility in different solvents, shake-flask method; format: physicochemical; settings: room temperature
Description: Solubility of GT-14 was assessed in different solvents, namely, water, ethanol, PEG 300, PEG 400, propylene glycol, DMSO, DMA, olive oil, soybean oil, Labrasol and Labrafac, by the shake-flask method. Briefly, an excess amount of GT-14 was added to each of the selected solvents in a scintillation vial. The vials were allowed to shake on a mechanical reciprocating shaker at room temperature for 24 h to achieve solvent saturation. The samples were then centrifuged at 15,000 rpm for 15 min at room temperature. The supernatant with dissolved GT-14 was separated from the pellet of the undissolved compound. It was then diluted and analyzed by UPLC to determine the concentration of GT-14. All experiments were conducted in triplicates.

[3] = Ionization constant (pKa) determination, Pion Sirius T3, UV-metric and Fast UV titration; format: physicochemical; settings: for pKa: 0.15 M KCl solution, 0.15 M KCl, 25 ± 1°C
Description: The Ionization constant of GT-14 was determined using the Pion Sirius T3 apparatus (Sirius Analytical Instruments Ltd., East Sussex, UK). It has an Ag/AgCl double junction reference pH electrode, a Sirius ±D-PAS spectrometer and a turbidity sensing device. The titration experiments were conducted in 0.15 M KCl solution under an argon atmosphere at a temperature of 25 ± 1°C. All tests were performed using standardized 0.5 M KOH and 0.5 M HCl as titration reagents. pKa value was measured using UV-metric and Fast UV titration methods.

[4] = pH-dependent stability in USP buffers; format: physicochemical; settings: 25°C
Description: The pH-dependent stability of GT-14 was assessed in aqueous media of pH ranging from 1 to 10 at room temperature. Standard USP buffers ([11]) were prepared and used for this experiment. Details of buffer solutions are provided in Table I. For the pH solubility profile, GT-14 solid was added in excess amounts in various buffer solutions.
To determine the stability of GT-14 in different buffers, GT-14 stock solution (prepared in ACN at a concentration of 75 μg/mL) was added to different buffers to achieve a target concentration of 5 μg/mL. Each buffer solution was prepared in triplicate. All solutions were put on the shaker bath maintained at 25°C. Aliquots were withdrawn at predetermined time points (0, 24, 72, 96, and 120 hrs), centrifuged at 15,000 rpm for 10 min, diluted with Water: ACN (50:50, v/v), and analyzed by the UPLC assay.

C/C(=N\c1ccc(O)cc1)c1cc2ccccc2n1C [GT-14, (E)-4-((1-(1-methyl-1H-indol-2-yl)ethylidene)amino)phenol]
Phase II glucuronidation (UPLC peaks) (liver microsomes): no additional peaks were observed | stability in rat urine (in words) [1]: stable | Stability at -20 °C (48 hrs) in rat urine ([1]; 25 ng/ml): 109.28 ± 2.57 | Stability at -20 °C (48 hrs) in rat urine ([1]; 50 ng/ml): 110.25 ± 2.36 | Stability at -20 °C (48 hrs) in rat urine ([1]; 500 ng/ml): 105.71 ± 3.76 | Stability at -20 °C (48 hrs) in rat urine ([1]; 1000 ng/ml): 101.43 ± 2.58 | solubility at 24 h ([2]; DMA, thermodynamic from solid, n=3, read-out: Solubility in DMA): 107000 µg/mL (≈ 406 mM) | solubility at 24 h ([2]; DMSO, thermodynamic from solid, n=3, read-out: Solubility in DMSO): 80000 µg/mL (≈ 303 mM) | solubility at 24 h ([2]; Labrafac CC (Labrafac Lipophile WL1349), thermodynamic from solid, n=3, read-out: Solubility in Labrafac CC (Labrafac Lipophile WL1349)): 8600 µg/mL (≈ 32.5 mM) | solubility at 24 h ([2]; Labrasol, thermodynamic from solid, n=3, read-out: Solubility in Labrasol): 8100 µg/mL (≈ 30.6 mM) | solubility at 24 h ([2]; PEG 300, thermodynamic from solid, n=3, read-out: Solubility in PEG 300): 17200 µg/mL (≈ 65.1 mM) | solubility at 24 h ([2]; PEG 400, thermodynamic from solid, n=3, read-out: Solubility in PEG 400): 11300 µg/mL (≈ 42.7 mM) | solubility at 24 h ([2]; olive oil, thermodynamic from solid, n=3, read-out: Solubility in olive oil): 11400 µg/mL (≈ 43.1 mM) | solubility at 24 h ([2]; propylene glycol, thermodynamic from solid, n=3, read-out: Solubility in propylene glycol): 5300 µg/mL (≈ 20.1 mM) | Solubility in DMA ([2]; 24 h, n=3): freely soluble | Solubility in DMSO ([2]; 24 h, n=3): freely soluble | Solubility in Labrafac CC (Labrafac Lipophile WL1349) ([2]; 24 h, n=3): slightly soluble | Solubility in PEG 300 ([2]; 24 h, n=3): sparingly soluble | Solubility in PEG 400 ([2]; 24 h, n=3): sparingly soluble | Solubility in olive oil ([2]; 24 h, n=3): sparingly soluble | Solubility in propylene glycol ([2]; 24 h, n=3): slightly soluble | Solubility in soybean oil ([2]; 24 h, n=3): slightly soluble | Solubility in water ([2]; 24 h, n=3): very slightly soluble | solubility at 24 h ([2]; soybean oil, thermodynamic from solid, n=3, read-out: Solubility in soybean oil): 7800 µg/mL (≈ 29.5 mM) | solubility at 24 h ([2]; water, n=3, read-out: Solubility in water): 110 µg/mL (≈ 0.416 mM) | pKa ([3]; read-out: pKa (printed as acidic pKa, nitrogen of the imine group)): 3.46 ± 0.014 | pKa ([3]; read-out: pKa (printed as basic pKa, phenolic group)): 10.5 ± 0.4 | isoelectric point (pI) ([3]; pI=(pKa acid+pKa base)/2): approximately 7.0 | pH stability (in words) ([4]; acidic to neutral pH 1.2–7.4, 120 hours): relatively stable | pH stability (in words) ([4]; alkaline pH 9–10, 120 hours): significant degradation; also recorded: degrading; also recorded: degradation is significantly pronounced | pH stability, % remaining ([4]; pH 1.2–7.4, up to 120 hours): > 90% remaining
